Values after ≈ are worked out from the molar mass of the structure shown.
Columns and labels:
Candida albicans = assay: Antimicrobial activity against Candida albicans 7535 after 20 hrs by two-fold serial dilution technique; format: functional; details: Candida albicans, 7535, 20 h
Staphylococcus aureus [1] = assay: Antimicrobial activity against methicillin-resistant Staphylococcus aureus clinical isolate 3506 after 20 hrs by two-fold serial dilution technique; format: functional; details: isolate 3506, 20 h
Salmonella typhimurium [2] = assay: Antimicrobial activity against Salmonella typhimurium 2421 after 20 hrs by two-fold serial dilution technique; format: functional, Salmonella enterica subsp. enterica serovar Typhimurium; details: Salmonella enterica, 2421, 20 h
Staphylococcus aureus [3] = assay: Antimicrobial activity against methicillin-resistant Staphylococcus aureus clinical isolate 3167 after 20 hrs by two-fold serial dilution technique; format: functional; details: isolate 3167, 20 h
Staphylococcus aureus [4] = assay: Antimicrobial activity against Staphylococcus aureus RN4220 after 20 hrs by two-fold serial dilution technique; format: functional; details: RN4220, 20 h
Salmonella typhimurium [5] = assay: Antimicrobial activity against Salmonella typhimurium 1926 after 20 hrs by two-fold serial dilution technique; format: functional, Salmonella enterica subsp. enterica serovar Typhimurium; details: Salmonella enterica, 1926, 20 h
Pseudomonas aeruginosa [6] = assay: Antimicrobial activity against Pseudomonas aeruginosa 2742 after 20 hrs by two-fold serial dilution technique; format: functional; details: Pseudomonas aeruginosa, 2742, 20 h
Escherichia coli [7] = assay: Antimicrobial activity against Escherichia coli KCTC 1924 after 20 hrs by two-fold serial dilution technique; format: functional; details: KCTC 1924, 20 h
Staphylococcus aureus [8] = assay: Antimicrobial activity against quinolone-resistant Staphylococcus aureus clinical isolate 3505 after 20 hrs by two-fold serial dilution technique; format: functional; details: isolate 3505, 20 h
Pseudomonas aeruginosa [9] = assay: Antimicrobial activity against Pseudomonas aeruginosa 2004 after 20 hrs by two-fold serial dilution technique; format: functional; details: Pseudomonas aeruginosa, 2004, 20 h
Staphylococcus aureus [10] = assay: Antimicrobial activity against Staphylococcus aureus 209 after 20 hrs by two-fold serial dilution technique; format: functional; details: Staphylococcus aureus, 209, 20 h
Staphylococcus aureus [11] = assay: Antimicrobial activity against Staphylococcus aureus 503 after 20 hrs by two-fold serial dilution technique; format: functional; details: Staphylococcus aureus, 503, 20 h
Streptococcus mutans = assay: Antimicrobial activity against Streptococcus mutans 3065 after 20 hrs by two-fold serial dilution technique; format: functional; details: Streptococcus mutans, 3065, 20 h
Escherichia coli [12] = assay: Antimicrobial activity against Escherichia coli CCARM 1356 after 20 hrs by two-fold serial dilution technique; format: functional; details: CCARM 1356, 20 h
Staphylococcus aureus [13] = assay: Antimicrobial activity against quinolone-resistant Staphylococcus aureus clinical isolate 3519 after 20 hrs by two-fold serial dilution technique; format: functional; details: isolate 3519, 20 h

| Compound | MIC (Candida albicans) [mg/L] | MIC (Staphylococcus aureus [1]) [mg/L] | MIC (Salmonella typhimurium [2]) [mg/L] | MIC (Staphylococcus aureus [3]) [mg/L] | MIC (Staphylococcus aureus [4]) [mg/L] | MIC (Salmonella typhimurium [5]) [mg/L] | MIC (Pseudomonas aeruginosa [6]) [mg/L] | MIC (Escherichia coli [7]) [mg/L] | MIC (Staphylococcus aureus [8]) [mg/L] | MIC (Pseudomonas aeruginosa [9]) [mg/L] | MIC (Staphylococcus aureus [10]) [mg/L] | MIC (Staphylococcus aureus [11]) [mg/L] | MIC (Streptococcus mutans) [mg/L] | MIC (Escherichia coli [12]) [mg/L] | MIC (Staphylococcus aureus [13]) [mg/L] |
| --- | --- | --- | --- | --- | --- | --- | --- | --- | --- | --- | --- | --- | --- | --- | --- |
| O=C1CSC(=S)N1Cc1nnc(-c2ccccc2F)o1 | 64 (≈ 207 µM) | 64 (≈ 207 µM) | 64 (≈ 207 µM) | 64 (≈ 207 µM) | 64 (≈ 207 µM) | 64 (≈ 207 µM) | > 128 | 32 (≈ 103 µM) | 64 (≈ 207 µM) | > 128 | 16 (≈ 51.7 µM) | 64 (≈ 207 µM) | 32 (≈ 103 µM) | > 128 | 64 (≈ 207 µM) |
| O=C1CSC(=S)N1Cc1nnc(-c2ccccc2)o1 | 64 (≈ 220 µM) | 64 (≈ 220 µM) | 128 (≈ 439 µM) | 64 (≈ 220 µM) | 64 (≈ 220 µM) | 64 (≈ 220 µM) | > 128 | 64 (≈ 220 µM) | 64 (≈ 220 µM) | > 128 | 32 (≈ 110 µM) | 64 (≈ 220 µM) | 64 (≈ 220 µM) | > 128 | 64 (≈ 220 µM) |
| Cc1cccc(-c2nnc(CN3C(=O)/C(=C/c4ccc(C(=O)O)cc4)SC3=S)o2)c1 | > 64 | 32 (≈ 73.1 µM) | > 128 | 32 (≈ 73.1 µM) | 16 (≈ 36.6 µM) | > 128 | > 128 | > 128 | 32 (≈ 73.1 µM) | > 128 | 32 (≈ 73.1 µM) | 32 (≈ 73.1 µM) | 16 (≈ 36.6 µM) | > 128 | 32 (≈ 73.1 µM) |
| O=C(O)c1ccc(/C=C2\SC(=S)N(Cc3nnc(-c4cccc(Cl)c4)o3)C2=O)cc1 | > 64 | 32 (≈ 69.9 µM) | > 128 | 8 (≈ 17.5 µM) | 8 (≈ 17.5 µM) | > 128 | > 128 | > 128 | 16 (≈ 34.9 µM) | > 128 | 16 (≈ 34.9 µM) | 16 (≈ 34.9 µM) | 16 (≈ 34.9 µM) | > 128 | 16 (≈ 34.9 µM) |
| O=C(O)c1ccc(/C=C2\SC(=S)N(Cc3nnc(-c4cccc(Br)c4)o3)C2=O)cc1 | > 64 | 16 (≈ 31.8 µM) | > 128 | 8 (≈ 15.9 µM) | 16 (≈ 31.8 µM) | > 128 | > 128 | > 128 | 16 (≈ 31.8 µM) | > 128 | 16 (≈ 31.8 µM) | 16 (≈ 31.8 µM) | 16 (≈ 31.8 µM) | > 128 | 16 (≈ 31.8 µM) |
| Cc1cccc(-c2nnc([C@H](Cc3ccccc3)N3C(=O)CSC3=S)o2)c1 | > 64 | 8 (≈ 20.2 µM) | > 128 | 8 (≈ 20.2 µM) | 8 (≈ 20.2 µM) | > 128 | > 128 | > 128 | 8 (≈ 20.2 µM) | > 128 | > 64 | > 64 | 4 (≈ 10.1 µM) | > 128 | 8 (≈ 20.2 µM) |
| O=C1CSC(=S)N1[C@@H](Cc1ccccc1)c1nnc(-c2cccc(Cl)c2)o1 | > 64 | 8 (≈ 19.2 µM) | > 128 | 4 (≈ 9.62 µM) | 8 (≈ 19.2 µM) | > 128 | > 128 | > 128 | 8 (≈ 19.2 µM) | > 128 | > 64 | > 64 | 4 (≈ 9.62 µM) | > 128 | 8 (≈ 19.2 µM) |
| O=C1CSC(=S)N1[C@@H](Cc1ccccc1)c1nnc(-c2cccc(Br)c2)o1 | > 64 | 4 (≈ 8.69 µM) | > 128 | 2 (≈ 4.34 µM) | 4 (≈ 8.69 µM) | > 128 | > 128 | > 128 | 2 (≈ 4.34 µM) | > 128 | > 64 | > 64 | 2 (≈ 4.34 µM) | > 128 | 4 (≈ 8.69 µM) |
| COc1c(N2C[C@@H]3CCCN[C@@H]3C2)c(F)cc2c(=O)c(C(=O)O)cn(C3CC3)c12 [MOXIFLOXACIN] | 0.5 (≈ 1.25 µM) | – | 0.5 (≈ 1.25 µM) | – | 0.25 (≈ 0.623 µM) | 1 (≈ 2.49 µM) | – | – | – | 2 (≈ 4.98 µM) | – | 2 (≈ 4.98 µM) | 0.25 (≈ 0.623 µM) | 128 (≈ 319 µM) | – |
| CCn1cc(C(=O)O)c(=O)c2cc(F)c(N3CCNCC3)cc21 [NORFLOXACIN] | – | 4 (≈ 12.5 µM) | – | 8 (≈ 25.1 µM) | – | – | – | – | > 64 | – | – | – | – | – | > 64 |
| Cc1onc(-c2ccccc2)c1C(=O)N[C@@H]1C(=O)N2[C@@H]1SC(C)(C)[C@@H]2C(=O)O [OXACILLIN] | – | > 64 | – | > 64 | – | – | – | – | 1 (≈ 2.49 µM) | – | – | – | – | – | 1 (≈ 2.49 µM) |
